target: T1, TrkA (Homo sapiens, UniProt P04629); assay: TrkA tyrosine kinase substrate phosphorylation assay (Src peptide, 33P-ATP, p81 filter plates); assay type: biochemical; conditions: GST-fusion of TrkA intracellular domain; 20-40 nM TrkA, 30 uM ATP, 50 uM Src peptide, RT 120 min
T1 construct: The enzyme is a GST-fusion of the intracellular domain expressed in SF9 cells; purchased Regeneron; host or cells: SF9 cells
Description: The compounds of the present invention have valuable pharmacologic properties. Different compounds from this class are particularly effective at inhibiting the trkA kinase enzyme at concentrations which range from 0.0001 to 1 μM and additionally show specificity relative to other kinases. Substrate phosphorylation assays were carried out as follows:
Screening format: Tyrosine kinase activity is being measured using a synthetic peptide substrate. The enzyme is a GST-fusion of the intracellular domain expressed in SF9 cells. The enzyme is expressed and purified by Regeneron. The enzyme is preincubated with cold ATP and Mg to allow autophosphorylation prior to running the screen. This increases the initial rate of catalysis approximately 3 fold. The assay is performed in 96 well microtitre plates, and reaction products are detected following filtration through millipore p81 phosphocellulose plates. Assay Conditions

T1 sequence (P04629 440-796 limits assumed, species assumed): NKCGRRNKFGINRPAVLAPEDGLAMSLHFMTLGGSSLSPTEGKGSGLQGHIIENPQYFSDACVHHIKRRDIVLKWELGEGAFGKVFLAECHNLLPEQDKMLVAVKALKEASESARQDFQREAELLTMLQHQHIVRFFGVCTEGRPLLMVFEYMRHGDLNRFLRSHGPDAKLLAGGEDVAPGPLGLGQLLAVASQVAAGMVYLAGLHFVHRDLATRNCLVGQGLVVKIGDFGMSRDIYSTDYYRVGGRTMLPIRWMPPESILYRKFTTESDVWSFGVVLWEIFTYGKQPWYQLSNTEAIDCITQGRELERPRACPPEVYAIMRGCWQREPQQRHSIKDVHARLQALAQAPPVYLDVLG

Row | IC50 [nM] | Structure (SMILES)
1 | < 10 | CNS(=O)(=O)Cc1ccc(N/N=C2\C(=O)Nc3cc(C(C)C)c(O)c(Cl)c32)cc1 [Example 1, {4-[(2Z)-2-(4-chloro-5-hydroxy-6-isopropyl-2-oxo-1,2-dihydro-3H-indol-3-ylidene)hydrazino]phenyl}-N-methylmethanesulfonamide]
2 | < 10 | CS(=O)(=O)Nc1ccc(N/C=C2\C(=O)Nc3ccccc32)cc1 [Example 2, N-(4-{[(Z)-(2-oxo-1,2-dihydro-3H-indol-3-ylidene)methyl]amino}phenyl)methanesulfonamide]
3 | 10 to 100 | O=C1Nc2ccccc2/C1=C/Nc1ccc(S(=O)(=O)Nc2ccccn2)cc1 [Example 3, 4-{[(Z)-(2-oxo-1,2-dihydro-3H-indol-3-ylidene)methyl]amino}-N-(2-pyridinyl)benzenesulfonamide]
4 | 10 to 100 | Cc1nnc(NS(=O)(=O)c2ccc(N/C=C3\C(=O)Nc4ccccc43)cc2)s1 [Example 4, N-(5-methyl-1,3,4-thiadiazol-2-yl)-4-{[(Z)-(2-oxo-1,2-dihydro-3H-indol-3-ylidene)methyl]amino}benzenesulfonamide]
5 | 10 to 100 | NS(=O)(=O)c1cccc(N/C=C2\C(=O)Nc3ccccc32)c1 [Example 5, 3-{[(Z)-(2-oxo-1,2-dihydro-3H-indol-3-ylidene)methyl]amino}benzenesulfonamide]

Source: US7071217B2, “Substituted oxindole derivatives as tyrosine kinase inhibitors” (SmithKline Beecham Corporation, priority 2000, dated 2006)
